How the values were obtained:
[1] = system: Cabbage Looper (Trichoplusia ni); assay: Bioassay on Cabbage Looper (CL), 128-well diet tray assay; format: in vivo; conditions: Table 5, Performed at 12.5 μg/cm^2, read-out: CL Rating
[2] = system: Beet Armyworm (Spodoptera exigua); assay: Bioassay on Beet Armyworm (BAW), 128-well diet tray assay; format: in vivo; conditions: Table 5, Performed at 12.5 μg/cm^2, read-out: BAW Rating
[3] = system: Beet Armyworm (Spodoptera exigua); assay: as above; format: in vivo; conditions: Spodoptera exigua, 168 h; percent mortality of second instar larvae, 50 μg/cm^2 on artificial diet, five to seven days, 25° C.; read-out: BAW Rating
[4] = system: Cabbage Looper (Trichoplusia ni); assay: Bioassay on Cabbage Looper (CL), 128-well diet tray assay; format: in vivo; conditions: 168 h, percent mortality of second instar larvae, 50 μg/cm^2 on artificial diet, five to seven days, 25° C., read-out: CL Rating
Method: (§1) Certain molecules disclosed in this document were tested against BAW, CEW and CL using procedures described in the following examples. In the reporting of the results, the “BAW & CEW & CL Rating Table” was used (See Table Section).
Bioassays on CL (Trichoplusia ni)
Bioassays on CL were conducted using a 128-well diet tray assay. One to five second instar CL larvae were placed in each well (3 mL) of the diet tray that had been previously filled with 1 mL of artificial diet to which 50 μg/cm^2 of the test compound (dissolved in 50 μL of 90:10 acetone-water mixture) had been applied (to each of eight wells) and then allowed to dry. Trays were covered with a clear self-adhesive cover, and held at 25° C., 14:10 light-dark for five to seven days. Percent mortality was recorded for the larvae in each well; activity in the eight wells was then averaged.
“Table 4: Assay Results Part 2” (See Table Section).

[5] = system: Green Peach Aphid (Myzus persicae); assay: Bioassay on Green Peach Aphid (GPA), foliar spray on cabbage seedlings; format: in vivo; conditions: for pest or weed control at 200 ppm / pest or weed control at 200 µg/mL: Myzus persicae, 72 h, read-out: GPA Rating; for pest or weed control at 200 ppm: corrected % control (Abbott), 200 ppm foliar spray on cabbage seedlings, three days; for pest or weed control at 200 µg/mL: foliar, Table 5, Prophetic Compounds Subsequently Exemplified
Method: Certain molecules disclosed in this document were tested against GPA using procedures described in the following example. In the reporting of the results, the “GPA Rating Table” was used (See Table Section). Cabbage seedlings grown in 3-inch pots, with 2-3 small (3-5 cm) true leaves, were used as test substrate. The seedlings were infested with 20-50 GPA (wingless adult and nymph stages) one day prior to chemical application. Four pots with individual seedlings were used for each treatment. Test compounds (2 mg) were dissolved in 2 mL of acetone/MeOH (1:1) solvent, forming stock solutions of 1000 ppm test compound. The stock solutions were diluted 5× with 0.025% Tween 20 in water to obtain the solution at 200 ppm test compound. A hand-held aspirator-type sprayer was used for spraying a solution to both sides of […] leaves until runoff. Reference plants (solvent check) were sprayed with the diluent only containing 20% by volume of acetone/MeOH (1:1) solvent. Treated plants were held in a holding room for three days at approximately 25° C. and ambient relative humidity (RH) prior to grading. Evaluation was conducted by counting the number of live aphids per plant under a microscope. Percent Control was measured by using Abbott's correction formula (W. S. Abbott, “A Method of Computing the Effectiveness of an Insecticide” J. Econ. Entomol. 18 (1925), pp. 265-267) as follows. Corrected % Control=100*(X−Y)/X • where • X=No. of live aphids on solvent check plants and • Y=No. of live aphids on treated plants The results are indicated in the tables entitled “Table 3: Assay Results Part 1” and “Table 4: Assay Results Part 2” (See Table Section).

[6] = system: Corn Earworm (Helicoverpa zea); assay: Bioassay on Corn Earworm (CEW), 128-well diet tray assay; format: in vivo; conditions: Table 3, Assays Results Part 1
Method: as §1
Bioassays on CEW (Helicoverpa zea)
Bioassays on CEW were conducted using a 128-well diet tray assay. One to five second instar CEW larvae were placed in each well (3 mL) of the diet tray that had been previously filled with 1 mL of artificial diet to which 50 μg/cm^2 of the test compound (dissolved in 50 μL of 90:10 acetone-water mixture) had been applied (to each of eight wells) and then allowed to dry. Trays were covered with a clear self-adhesive cover, and held at 25° C., 14:10 light-dark for five to seven days. Percent mortality was recorded for the larvae in each well; activity in the eight wells was then averaged. The results are indicated in the table entitled “Table 3: Assay Results Part 1” (See Table Section).

## O=C(CNC(=O)c1ccc(/C=C/C(c2cc(Br)cc(Br)c2)C(F)(F)F)cc1Br)NCC(F)(F)F (centres unmarked) [Compound P1969]
[1]
  pest or weed control at 12.5 µg/cm2, 12.5 µg/cm2: 50 to 100%
[2]
  pest or weed control at 12.5 µg/cm2, 12.5 µg/cm2: 50 to 100%

## CC(C)(NC(=O)c1ccc(/C=C/C(c2cc(Cl)c(Cl)c(Cl)c2)C(F)(F)F)cc1Br)C(=O)NCC(F)(F)F (centres unmarked) [Compound F1, (E)-2-Bromo-N-(2-methyl-1-oxo-1-((2,2,2-trifluoroethyl)amino)propan-2-yl)-4-(4,4,4-trifluoro-3-(3,4,5-trichlorophenyl)but-1-en-1-yl)benzamide]
[3]
  pest or weed control at 50 µg/cm2, 50 µg/cm2: 50 to 100%
[4]
  pest or weed control at 50 µg/cm2, 50 µg/cm2: 50 to 100%
[5]
  pest or weed control at 200 ppm: 0 to 80%

## O=C(NCc1ccc(/C=C/C(c2cc(Cl)c(Cl)c(Cl)c2)C(F)(F)F)cc1Cl)Oc1ccccc1Cl (centres unmarked) [CC40]
[6]
  CEW Rating: A (50-100)

## O=C(CNC(=O)c1ccc(/C=C/C(c2cc(Cl)cc(C(F)(F)F)c2)C(F)(F)F)cc1Br)NCC(F)(F)F (centres unmarked) [Compound P1411]
[5]
  pest or weed control at 200 µg/mL: 0 to 80%

## NC(=O)c1ccc(/C=C/C(c2cc(Cl)cc(Cl)c2)C(F)(F)F)cc1 (centres unmarked) [AC2]
other
  melting point: 110 to 112 °C

## C[C@@H](NC(=O)c1ccc(/C=C/[C@H](c2cc(Cl)c(Cl)c(Cl)c2)C(F)(F)F)cc1C(F)(F)F)C(=O)NCC(F)(F)F [Compound F20A, N—((R)-1-Oxo-1-((2,2,2-trifluoroethyl)amino)propan-2-yl)-4-((E)-4,4,4-trifluoro-3-(3,4,5-trichlorophenyl)but-1-en-1-yl)-2-(trifluoromethyl)benzamide]
[3]
  pest or weed control at 50 µg/cm2, 50 µg/cm2: 50 to 100%
[4]
  pest or weed control at 50 µg/cm2, 50 µg/cm2: 50 to 100%
[5]
  pest or weed control at 200 ppm: 80 to 100%

## C[C@@H](NC(=O)c1ccc(/C=C/C(c2cc(Cl)c(Cl)c(Cl)c2)C(F)(F)C(F)(F)F)cc1C(F)(F)F)C(=O)NCC(F)(F)F (some centres unmarked) [Compound P1601]
[5]
  pest or weed control at 200 µg/mL: 0 to 80%

## O=C(NCc1ccc(/C=C/C(c2cc(Cl)c(Cl)c(Cl)c2)C(F)(F)F)cc1C(F)(F)F)c1cccnc1 (centres unmarked) [CC23]
[6]
  CEW Rating: A (50-100)
[5]; Table 3, Assays Results Part 1
  GPA Rating: B (More than 0-Less than 80)
